Laboratory results reported in US9895450B2, “Anti-wall teichoic antibodies and conjugates” (priority 2013, dated 2018).

Legend:
[1] = test system: MRSA (NRS384 strain of USA300); test: MIC determinations for intracellular bacteria (inside mouse peritoneal macrophages); type: cell-based, S. aureus; conditions: for killing of intracellular MRSA sequestered inside macrophages: dose range including serum Cmax; for potency at killing intracellular MRSA as free antibiotics: tested as free antibiotics
MRSA [2] = conditions: vancomycin 2 and 20 μg/mL; rifampin 0.02 and 0.2 μg/mL; TSB
MRSA (USA300) = test: intravenous infection model in CB17.SCID mice reconstituted with human IgG (SCID:huIgG); type: in vivo; conditions: twice-daily 100 mg/Kg, treatment initiated more than 1 day post infection
Procedure: To confirm that the AAC would be effective in the presence of competing human antibodies in vivo, the in vivo infection model was modified to generate mice that express normal levels of human IgG in the serum. […] Four days after infection the bacterial load in the kidneys (FIG. 10C) was assessed.
CB17.SCID mice were reconstituted with human IgG using a dosing regimen optimized to yield constant levels of at least 10 mg/mL of human IgG in serum.
Efficacy of the AAC was compared with that of treatment with vancomycin, the current standard of care treatment for MRSA infections. […]
CB17.SCID mice were reconstituted with human IgG using a dosing regimen optimized to yield constant levels of at least 10 mg/mL of human IgG in serum and infected with 2×10^7 CFU of USA300 by intravenous injection. […] The mice were sacrificed on day 4 post infection, and the total number of surviving bacteria in kidneys (2 kidneys pooled, FIG. 21) and heart (FIG. 22) was determined by plating.
(§1) Intravenous Infection Model: 7 week old female mice were used for all in vivo experiments and infections were carried out by intravenous injection into the tail vein. […] The total number of bacteria recovered per mouse (2 kidneys) was determined by plating serial dilutions of the tissue homogenate in PBS 0.05% Tween on Tryptic Soy Agar with 5% defibrinated sheep blood.

[3] = clinically achieveable serum levels; cited from earlier work
USA300 = test: intravenous infection model in Balb/c mice, pre-treatment; type: in vivo; conditions: antibodies 50 mg/Kg IV 30 minutes prior to infection; vancomycin 110 mg/Kg twice daily IP; day 4
Procedure: Balb/c mice were given a single dose of vehicle control (PBS) or 50 mg/Kg of antibodies by intravenous injection 30 minutes prior to infection with 2×10^7 CFU of USA300. […] Control mice were given twice daily treatments with 110 mg/Kg of vancomycin by intraperitoneal injection (Vanco). All mice were sacrificed on day 4 post-infection, and the total number of surviving bacteria in kidneys (2 kidneys pooled) was determined by plating.
(§2) Intravenous Infection Model: 7 week old female mice were used for all in vivo experiments and infections were carried out by intravenous injection into the tail vein. A/J mice (Jackson Lab) were infected with a dose of 2×10^6 CFU. Balb/c mice (Charles River Laboratories, Hollister, Calif.) were infected with a dose of 2×10^7 CFU. For studies examining the role of competing human IgG (SCID IVIG model), CB17.SCID mice (Charles River Laboratories, Hollister, Calif.) were reconstituted with GammaGard S/D IGIV Immune Globulin (ASD Healthcare, Brooks Ky.) using a dosing regimen optimized to achieve constant serum levels of >10 mg/mL of human IgG. […] The total number of bacteria recovered per mouse (2 kidneys) was determined by plating serial dilutions of the tissue homogenate in PBS 0.05% Tween on Tryptic Soy Agar with 5% defibrinated sheep blood.

MRSA [4] = test: intravenous infection model in CB17.SCID mice, treatment 1 day after infection; type: in vivo; conditions: AAC 50 mg/Kg or antibiotic 0.5 mg/Kg, 1 day post infection; kidneys day 4
Procedure: One day after infection, the mice were treated with 50 mg/Kg of S4497 antibody, 50 mg/Kg of S4497 dimethyl-pipBOR AAC 105 or with 0.5 mg/Kg of dimethyl-pipBOR antibiotic 7, the equivalent dose of antibiotic that is contained in 50 mg/Kg of AAC). Mice were sacrificed 4 days after infection and the total number of surviving bacteria per mouse (2 kidneys pooled) was determined by plating.
as §2

MRSA [5] = test: growth inhibition assay / cathepsin release assay; type: cell-based, S. aureus; conditions: MRSA cultured overnight with up to 10 μg/mL of AAC
Procedure: An AAC comprising antibody rF1, which binds to a family of cell wall associated proteins was conjugated to a rifamycin derivative. S. aureus (Newman strain) was treated with various doses of the rF1-AAC or with equivalent doses of either antibody alone, rifampicin alone or a mixture of antibody and free rifampicin to permit antibody binding to the bacteria (opsonization) and after 1 hour incubation the opsonized bacteria were fed to macrophages (FIG. 7A).
See: page 863 of Dubowchik et al (2002) Bioconj. Chem. 13:855-869, incorporated by reference for the purposes of this assay. Cathepsin B (from bovine spleen, SIGMA C7800) was added at 10 μg/mL and the samples were incubated for 1 hour at 37° C. As a control, AAC were incubated in buffer alone. The reaction was stopped by addition of 10 volumes of bacterial growth media, Tryptic Soy Broth pH 7.4 (TSB). To estimate the total release of active antibiotic, serial dilutions of the reaction mixture were made in quadruplicate in TSB in 96 well plates and the USA300 strain of S. aureus was added to each well at a final density of 2×10^3 CFU/mL. The cultures were incubated over night at […] with shaking and bacterial growth was measured by reading absorbance at 630 nm using a plate reader.

MRSA (USA300 strain) [6] = test: intravenous infection model in A/J mice; type: in vivo
Procedure: Efficacy of the AAC in an intravenous infection model was also examined. In this model, S. aureus is taken up by circulating neutrophils shortly after infection such that the majority of bacteria found in blood are associated with host cells within minutes after infection (Rogers, et al (1956) J. Exp. Med. 103:713-742). A/J Mice were infected with 2×10^6 CFU of MRSA by intravenous injection, and then treated with 50 mg/Kg of AACs by intravenous injection 30 minutes post infection. In this model, the primary site of infection is the kidney, and mice develop large abscesses that are detectable by two days post infection and fail to be cleared for up to 30 days in the absence of treatment.
Treatments were delivered by IV injection 30 minutes post infection and kidneys were harvested 4 days post infection. The grey dashed line indicates the limit of detection for each organ.
Efficacy of AAC made with pipBOR and dimethyl-pipBOR antibiotic moieties was compared in vivo in the intravenous infection model in A/J mice. […] Seven week old female A/J Mice were infected with 2×10^6 CFU of MRSA (USA300 strain) by intravenous injection into the tail vein. […] Treatments with S4497 antibody, AAC 102 or AAC 105 were administered at the indicated doses 30 minutes after infection. Mice were sacrificed 4 days after infection and the total number of surviving bacteria per mouse (2 kidneys pooled) was determined by plating.
as §1, with “vein. A/J mice (Jackson Lab) were infected with a dose of 2×10^6 CFU. Balb/c mice (Charles River Laboratories, Hollister, Calif.) were infected with a dose of 2×10^7 CFU.” for “vein.”

MRSA (USA300 strain) [7] = test: in vitro macrophage assay (intracellular killing of opsonized MRSA); type: cell-based, S. aureus; conditions: 50 μg/mL; macrophages, osteoblasts (MG63), airway epithelial cells (A549), HUVEC
Procedure: Isolation of Peritoneal Macrophages: Peritoneal macrophages were isolated from the peritoneum of 6-8 week old Balb/c mice (Charles River Laboratories, Hollister, Calif.). To increase the yield of macrophages, mice were pre-treated by intraperitoneal injection with 1 mL of thioglycolate media (Becton Dickinson). The thioglycolate media was prepared at a concentration of 4% in water, sterilized by autoclaving, and aged for 20 days to 6 months prior to use. Peritoneal macrophages were harvested 4 days post treatment with thioglycolate by washing the peritoneal cavity with cold phosphate buffered saline. Macrophages were plated in Dulbecco's Modified Eagle Medium (DMEM) supplemented with 10% Fetal Calf Serum, and 10 mM HEPES, without antibiotics, at a density of 4×10^5 cells/well in 24 well culture dishes. Macrophages were cultured over night to permit adherence to the plate. This assay was also utilized to test intracellular killing in non-phagocytic cell types. […]
Infection of Macrophages with Opsonized MRSA: The USA300 strain of MRSA (NRS384) was obtained from the NARSA repository (Chantilly, Va.). […] Serial dilutions of the lysate were made in phosphate buffered saline solution supplemented with 0.05% Tween-20 (to disrupt aggregates of bacteria) and the total number of surviving intracellular bacteria was determined by plating on Tryptic Soy Agar with 5% defibrinated sheep blood.

For `CCCCCCCCCC(=O)N[C@@H](Cc1c[nH]c2ccccc12)C(=O)N[C@H](CC(N)=O)C(=O)N[C@@H](CC(=O)O)C(=O)N[C@@H]1C(=O)NCC(=O)N[C@@H](CCCN)C(=O)N[C@@H](CC(=O)O)C(=O)N[C@H](C)C(=O)N[C@@H](CC(=O)O)C(=O)NCC(=O)N[C@H](CO)C(=O)N[C@@H]([C@H](C)CC(=O)O)C(=O)N[C@@H](CC(=O)c2ccccc2N)C(=O)O[C@@H]1C` [Daptomycin, daptomycin], the “killing of intracellular MRSA sequestered inside macrophages” value [1] was “failed to kill”.
In the case of `CC(=O)NC[C@H]1CN(c2ccc(N3CCOCC3)c(F)c2)C(=O)O1` [Linezolid, linezolid], the MIC ([1]; Staphylococcus aureus, MRSA inside mouse peritoneal macrophages, antibiotic added 1 day after infection, survival 24 hours later) is reported as over 20 µg/mL and the “killing of intracellular MRSA sequestered inside macrophages” value [1] is reported as “failed to kill”.
In the case of `CN[C@H](CC(C)C)C(=O)N[C@H]1C(=O)N[C@@H](CC(N)=O)C(=O)N[C@H]2C(=O)N[C@H]3C(=O)N[C@H](C(=O)N[C@H](C(=O)O)c4cc(O)cc(O)c4-c4cc3ccc4O)[C@H](O)c3ccc(c(Cl)c3)Oc3cc2cc(c3O[C@@H]2O[C@H](CO)[C@@H](O)[C@H](O)[C@H]2O[C@H]2C[C@](C)(N)[C@H](O)[C@H](C)O2)Oc2ccc(cc2Cl)[C@H]1O` [Vancomycin, vancomycin], the “killing of intracellular MRSA sequestered inside macrophages” value [1] is reported as “failed to kill”, the “bacteria remaining viable during the first two hours of antibiotic treatment” value (MRSA [2]) is reported as 90% and the “loss in viable bacteria by 5 hours” value (MRSA [2]) is reported as 100 fold. For the same compound, the “reduction of bacterial loads” value (MRSA (USA300)) was “about 50 fold”, the “Serum Cmax” value [3] was 10000 to 40000 ng/mL and the “effect of pre-treatment on bacterial loads in kidneys” value (USA300) was “cleared the infection in all of the mice tested”.
For `CO[C@H]1/C=C/O[C@@]2(C)Oc3c(C)c(O)c4c(=O)c(c5oc6cc(N7CCC(N(C)C)CC7)cc(O)c6nc-5c4c3C2=O)NC(=O)/C(C)=C\C=C\[C@H](C)[C@H](O)[C@@H](C)[C@@H](O)[C@@H](C)[C@H](OC(C)=O)[C@@H]1C` [dimethyl-pipBOR, dimethylpiperidyl benzoxazino rifamycin], the “potency at killing intracellular MRSA as free antibiotics” value [1] was “more potent than rifampicin” and the “efficacy against established infection” value (MRSA [4]) was “failed to clear the infection”.
For “piperidyl benzoxazino rifamycin [pipBOR]”, the “potency at killing intracellular MRSA as free antibiotics” value [1] was “more potent than rifampicin”.
With “thio-S4497-HC-A118C-MC-vc-PABC-(pipBOR) [rifa-102]” the “inhibition of bacterial growth by intact AAC” value (MRSA [5]) was “did not result in inhibition of bacterial growth unless the AACs were pre-treated with cathepsin B”, the “efficacy at the highest dose” value (MRSA (USA300 strain) [6]; 50 mg/Kg) was “effective” and the “efficacy in kidney infection” value (MRSA (USA300 strain) [6]; 50 mg/Kg IV 30 minutes post infection, kidneys 4 days post infection) was “cleared the infection in all of the mice tested”. The “efficacy at lower doses” value (MRSA (USA300 strain) [6]; doses below 50 mg/Kg) was “only partially efficacious” and the “intracellular killing of MRSA” value (MRSA (USA300 strain) [7]) was “effectively killed”.
